From patent publication US20240166627A1, “Terpyridinedione compound or salt thereof, and preparation method and application thereof” (SHENZHEN SALUBRIS PHARMACEUTICALS CO., LTD., priority 2021, published 2024)
≈ marks a conversion by molar mass, not a printed value.

Legend:
p38β = p38β (Homo sapiens, UniProt Q15759); assay: p38β kinase screening experiment (ADP-Glo); assay type: biochemical
Description: (§1) A certain amount of the compound is weighed, prepared into a 10/50 mM mother solution with DMSO, diluted 3 folds with DMSO, and diluted to 10 concentration points as a compound working solution.
(§2) 50 nL of the diluted compound working solution is transferred to each well of a reaction plate (784075, Greiner) with Echo 655, then 2.5 μL (2 ng/μL) of a p38β kinase solution is added; after 10 minutes at room temperature, 2.5 μL of a mixed solution of a kinase substrate (0.4 mg/mL) and ATP (100 μM) is added, for reaction for 60 min at room temperature; and 4 μL of an ADP Glo reagent is added, for incubation for 40 min at room temperature. 8 μL of a kinase detection reagent is added, for incubation for 40 min at room temperature; and finally a light-emitting signal is read on Envision 2104.

[1] = Determination of solubility; assay type: physicochemical; conditions: aqueous buffer, thermodynamic from solid, 37° C. 1 h
Description: About 0.5 mg of a to-be-tested sample in a centrifuge tube is weighted, an appropriate amount of DMSO is added to completely dissolve the sample, and then methanol is added to make up to 1 ml.
(If there are more pH values to be investigated, the preparation method may be deduced by analogy).
3. The prepared control solution and test solution are simultaneously put into a 37° C. water bath and heated for 1 h, after 1 h, the solutions are taken out and cooled to room temperature, and then the solutions are filtered with a 0.22 μm filter membrane for sample injection.
4. The concentration of the sample in the test solution is calculated according to C=(A*(ms/vs))/AS, and experiment results are shown in Table 2.
Note: ms, vs and AS are the weight, volume and peak area of the sample in the control solution, respectively.
A is the peak area of the test solution.

p38α/MK2 complex = p38α/MK2 complex (Homo sapiens, UniProt P49137+Q16539); assay: p38α/MK2 complex kinase screening experiment (IMAP FP); assay type: biochemical; conditions: p38α 0.2 nM, MK2 unactive 1 nM, HSP27 substrate 1 μM, ATP 10 μM; read-out: IC50 value that the compound inhibits p38α/MK2 complex
Description: A certain amount of a drug is weighted and prepared into a 10 mM of mother solution by using DMSO; the mother solution is diluted to 100 μM (100× working solution) in two steps; and then, the solution is diluted 3-fold to 33.33 μM, 11.11 μM, 3.70 μM, 1.23 μM, 0.41 μM, 0.14 μM, 0.046 μM, 0.015 μM, and 0.005 μM, successively. DMSO control is also arranged.
Then, a series of diluted DMSO drugs are diluted 25 folds with 1×IMAP Reaction Buffer as a 4× drug working solution.
10 gradient concentrations and 2 duplicated wells are set to each group of compounds; and a DMSO control group and a negative control group (DMSO, no ATP) are additionally set.
• c), after 1 h of incubation at room temperature, 1× Progressive Binding Solution is added to end the enzymatic reaction; after 30 min of incubation, a BMGPHERASTER FSX multifunctional microplate reader is used to detect a Fluorescence Polarization (FP) signal [FP(Ex485/Em520/Em520 nm)].

p38α = p38α (Homo sapiens, UniProt Q16539); assay: p38α kinase screening experiment (ADP-Glo); assay type: biochemical
Description: as §1
as §2, with “(4” for “(2”, “p38α” for “p38β”, “(0.2” for “(0.4”, “(150” for “(100”

[2] = Pharmacokinetic experiment in Beagle dogs (IV and PO); assay type: in vivo; conditions: male, dog, plasma, PO 5 mg/kg
Excerpt: Polyethylene glycol 400 (batch number: GORKREUT, Saen Chemical Technology (Shanghai) Co., Ltd.); DMSO (batch number: 20200319, GHTECH (Guangdong) Co., Ltd.); and normal saline (batch number: C20052604, Jiangxi Kelun Pharmaceutical Co., Ltd.). An LC-MS instrument (Thermo Fisher Ultimate 3000 UPLC, TSQ QUANTUM ULTRA TSQ Quantum GC).
5 male Beagle dogs with weights being 5 kg to 7 kg, purchased from Beijing Mars Biotechnology Co., Ltd. […]
After the above mixture is given to the dogs through intragastric administration (n=3) or intravenous administration (n=2), about 1 mL of blood is collected from the forelimb or hindlimb vein with a scalp needle, respectively, at 5 min (intravenous administration only), 15 min, 30 min, 1 h, 2 h, 4 h, 6 h, 8 h, 24 h to put into blood collection tubes containing EDTA-K2 anticoagulant; centrifugation is performed for 10 min at 4000 rpm to separate plasma; and then the tubes are stored at −80° C. for testing.
A certain amount of a test sample is accurately weighted and dissolved with DMSO to 2 mg/mL, as a stock solution. The stock solution is diluted to 30000, 10000, 3000, 1000, 300, 100, 50, 30, and 10 ng/mL by using acetonitrile:water (1:1), to obtain standard curve working solutions. 5 μL of the working solution is added to 45 μL of blank canine plasma; and well mixing is performed through vortex, to prepare into standard curve samples equivalent to plasma concentrations of 3000, 1000, 300, 100, 30, 10, 5, 3, and 1 ng/mL. 30 μL of the standard curve sample and the collected plasma sample (plasma collected at 5 min, 15 min, and 30 min of intravenous administration is diluted 5-fold) are added to 150 μL of a propranolol acetonitrile solution (internal standard, 50 ng/mL) to precipitate protein, then 100 μL of water is added to well mix through vortex; centrifugation is performed for 5 min at 4000 rpm; and supernatant is taken for LC-MS analysis. LC-MS detection conditions include the following.
Chromatographic column: Waters ACQUITY™ PREMIER HSS T3, 50*2.1 mm, 1.8 μm.
Mobile phase A: water (0.1% formic acid); mobile phase B: acetonitrile; flow rate: 0.5 mL/min; and gradient elution is shown in Table 3 below.
After LC-MS detection of blood drug concentration, and a non-compartment model of WinNonlin 6.1 software is adopted to calculate pharmacokinetic parameters of beagle dogs after administration.

Sequence of p38β (Q15759 whole entry): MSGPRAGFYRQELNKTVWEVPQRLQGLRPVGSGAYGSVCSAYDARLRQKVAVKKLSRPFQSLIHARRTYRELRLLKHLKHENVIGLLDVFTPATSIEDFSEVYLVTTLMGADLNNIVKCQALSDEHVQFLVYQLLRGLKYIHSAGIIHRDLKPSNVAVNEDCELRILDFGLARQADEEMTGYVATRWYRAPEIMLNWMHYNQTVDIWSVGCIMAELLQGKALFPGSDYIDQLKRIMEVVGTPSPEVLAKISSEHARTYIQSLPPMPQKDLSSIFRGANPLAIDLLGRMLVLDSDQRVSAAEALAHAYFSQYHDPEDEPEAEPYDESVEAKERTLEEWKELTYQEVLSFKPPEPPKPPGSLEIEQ
Sequence of p38α (Q16539 whole entry): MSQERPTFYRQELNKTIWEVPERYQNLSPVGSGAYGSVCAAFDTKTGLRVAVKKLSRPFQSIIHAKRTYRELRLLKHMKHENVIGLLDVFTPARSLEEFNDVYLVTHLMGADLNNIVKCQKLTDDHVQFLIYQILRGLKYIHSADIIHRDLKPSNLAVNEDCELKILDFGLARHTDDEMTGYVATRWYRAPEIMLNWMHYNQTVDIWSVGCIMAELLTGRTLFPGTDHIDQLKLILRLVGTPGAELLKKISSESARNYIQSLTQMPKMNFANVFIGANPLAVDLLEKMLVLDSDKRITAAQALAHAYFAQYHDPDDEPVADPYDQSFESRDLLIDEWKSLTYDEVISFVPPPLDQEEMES
Sequence of p38α/MK2 complex (Q16539 whole entry): as above
Sequence of p38α/MK2 complex (P49137 whole entry): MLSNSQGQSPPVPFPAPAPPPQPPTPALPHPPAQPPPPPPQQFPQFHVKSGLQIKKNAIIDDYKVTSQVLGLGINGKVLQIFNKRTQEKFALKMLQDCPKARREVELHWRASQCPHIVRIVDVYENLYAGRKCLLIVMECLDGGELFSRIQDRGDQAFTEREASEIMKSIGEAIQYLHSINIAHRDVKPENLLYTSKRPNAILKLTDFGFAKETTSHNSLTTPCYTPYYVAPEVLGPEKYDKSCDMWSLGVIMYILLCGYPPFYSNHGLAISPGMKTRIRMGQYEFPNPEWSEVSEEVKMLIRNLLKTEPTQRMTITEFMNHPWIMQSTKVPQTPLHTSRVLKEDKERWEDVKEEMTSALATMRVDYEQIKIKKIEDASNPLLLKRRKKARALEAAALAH

**Q.** With `Cc1cnc(-n2cccc(C(C)(C)O)c2=O)cc1-n1c(C)cc(OCc2ncc(F)cc2F)c(Cl)c1=O` [Comparative example 1] as the molecule, how does the IC50 (p38β; ATP 100 μM in the substrate/ATP mix, 60 min, read-out: IC50 value that the compound inhibits p38β) read?
**A.** Its IC50 is 4.1 µM.

**Q.** What about the “Activity multiple relative to p38β/(p38α/MK2 complex)” value (p38β; ratio of p38β IC50 to p38α/MK2 complex IC50 of Embodiment 50) of the same molecule?
**A.** Its value is 1575.

**Q.** And the solubility at 1 h ([1]; pH = 2.0, PBS buffer)?
**A.** Its solubility at 1 h is 427 µg/mL (≈ 807 µM).

**Q.** And the solubility at 1 h ([1]; pH = 7.4, PBS buffer)?
**A.** Its solubility at 1 h is 595 µg/mL (≈ 1130 µM).

**Q.** And the IC50 (p38α/MK2 complex)?
**A.** The IC50 was 0.0026 µM.

**Q.** And the IC50 (p38α; ATP 150 μM in the substrate/ATP mix, 60 min, read-out: IC50 value that the compound inhibits p38α)?
**A.** The IC50 was 0.578 µM.

**Q.** What about the “Activity multiple relative to p38α/(p38α/MK2 complex)” value (p38α; ratio of p38α IC50 to p38α/MK2 complex IC50 of Embodiment 50) of the same molecule?
**A.** The value was 222.

**Q.** And the AUC(0-t) [2]?
**A.** Its AUC(0-t) is 32900 ng·h/mL.

**Q.** What about the Cmax [2] of the same molecule?
**A.** The Cmax was 5550 ng/mL.
